# Measurements published in patent US20150094474A1, “AGRICULTURAL CHEMICALS” (Redx Pharma Ltd., priority 2012, published 2015).
# Experiments:
# [1] = test system: peas; assay: Herbicidal bioassay, peas (% necrosis); assay type: in vivo
# Outline: (§1)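 Scoring of % necrosis followed EPPO guideline PP1/135 at specified growth intervals, five replicates per species and treatment. Plants at the 2-4 true leaf stage received Potter-tower sprays of DMSO-diluted compounds across six levels from 0.0001% to 0.05%, with water and DMSO controls.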
# [2] = test system: barley; assay: Herbicidal bioassay, barley (% necrosis); assay type: in vivo
# Outline: as §1
smiles,measurement,setting,value
"COc1cc(OC)nc(NC(=O)NS(=O)(=O)c2cc(CNS(C)(=O)=O)ccc2COC(C)=O)n1 [Compound 61, [2-[(4,6-Dimethoxypyrimidin-2-yl)carbamoylsulfamoyl]-4-(methanesulfonamidomethyl)phenyl]methylacetate]",Sum of % necrosis in Pea,"[1]; Dose 0.000001, Day 0",C (less than 50% necrosis)
same,Sum of % necrosis in Pea,"[1]; Dose 0.000001, Day 1",C (less than 50% necrosis)
same,Sum of % necrosis in Pea,"[1]; Dose 0.000001, Day 3",C (less than 50% necrosis)
same,Sum of % necrosis in Pea,"[1]; Dose 0.000001, Day 7",C (less than 50% necrosis)
same,Sum of % necrosis in Pea,"[1]; Dose 0.000001, Day 10",C (less than 50% necrosis)
same,Sum of % necrosis in Pea,"[1]; Dose 0.000001, Day 14",C (less than 50% necrosis)
same,Sum of % necrosis in Pea,"[1]; Dose 0.000005, Day 0",C (less than 50% necrosis)
same,Sum of % necrosis in Pea,"[1]; Dose 0.000005, Day 1",C (less than 50% necrosis)
same,Sum of % necrosis in Pea,"[1]; Dose 0.000005, Day 3",C (less than 50% necrosis)
same,Sum of % necrosis in Pea,"[1]; Dose 0.000005, Day 7",C (less than 50% necrosis)
same,Sum of % necrosis in Pea,"[1]; Dose 0.000005, Day 10",C (less than 50% necrosis)
same,Sum of % necrosis in Pea,"[1]; Dose 0.000005, Day 14",C (less than 50% necrosis)
same,Sum of % necrosis in Pea,"[1]; Dose 0.00001, Day 0",C (less than 50% necrosis)
same,Sum of % necrosis in Pea,"[1]; Dose 0.00001, Day 1",C (less than 50% necrosis)
same,Sum of % necrosis in Pea,"[1]; Dose 0.00001, Day 3",C (less than 50% necrosis)
same,Sum of % necrosis in Pea,"[1]; Dose 0.00001, Day 7",C (less than 50% necrosis)
same,Sum of % necrosis in Pea,"[1]; Dose 0.00001, Day 10",C (less than 50% necrosis)
same,Sum of % necrosis in Pea,"[1]; Dose 0.00001, Day 14",B (50%-80% necrosis)
same,Sum of % necrosis in Pea,"[1]; Dose 0.00005, Day 0",C (less than 50% necrosis)
same,Sum of % necrosis in Pea,"[1]; Dose 0.00005, Day 1",C (less than 50% necrosis)
same,Sum of % necrosis in Pea,"[1]; Dose 0.00005, Day 3",C (less than 50% necrosis)
same,Sum of % necrosis in Pea,"[1]; Dose 0.00005, Day 7",C (less than 50% necrosis)
same,Sum of % necrosis in Pea,"[1]; Dose 0.00005, Day 10",B (50%-80% necrosis)
same,Sum of % necrosis in Pea,"[1]; Dose 0.00005, Day 14",B (50%-80% necrosis)
same,Sum of % necrosis in Pea,"[1]; Dose 0.0001, Day 0",C (less than 50% necrosis)
same,Sum of % necrosis in Pea,"[1]; Dose 0.0001, Day 1",C (less than 50% necrosis)
same,Sum of % necrosis in Pea,"[1]; Dose 0.0001, Day 3",C (less than 50% necrosis)
same,Sum of % necrosis in Pea,"[1]; Dose 0.0001, Day 7",C (less than 50% necrosis)
same,Sum of % necrosis in Pea,"[1]; Dose 0.0001, Day 10",C (less than 50% necrosis)
same,Sum of % necrosis in Pea,"[1]; Dose 0.0001, Day 14",C (less than 50% necrosis)
same,Sum of % necrosis in Pea,"[1]; Dose 0.0005, Day 0",C (less than 50% necrosis)
same,Sum of % necrosis in Pea,"[1]; Dose 0.0005, Day 1",C (less than 50% necrosis)
same,Sum of % necrosis in Pea,"[1]; Dose 0.0005, Day 3",C (less than 50% necrosis)
same,Sum of % necrosis in Pea,"[1]; Dose 0.0005, Day 7",B (50%-80% necrosis)
same,Sum of % necrosis in Pea,"[1]; Dose 0.0005, Day 10",B (50%-80% necrosis)
same,Sum of % necrosis in Pea,"[1]; Dose 0.0005, Day 14",A (over 80% necrosis)
same,Sum of % necrosis in barley,"[2]; Dose 0.000001, Day 0",C (less than 50% necrosis)
same,Sum of % necrosis in barley,"[2]; Dose 0.000001, Day 1",C (less than 50% necrosis)
same,Sum of % necrosis in barley,"[2]; Dose 0.000001, Day 3",C (less than 50% necrosis)
same,Sum of % necrosis in barley,"[2]; Dose 0.000001, Day 7",C (less than 50% necrosis)
same,Sum of % necrosis in barley,"[2]; Dose 0.000001, Day 10",C (less than 50% necrosis)
same,Sum of % necrosis in barley,"[2]; Dose 0.000001, Day 14",C (less than 50% necrosis)
same,Sum of % necrosis in barley,"[2]; Dose 0.000005, Day 0",C (less than 50% necrosis)
same,Sum of % necrosis in barley,"[2]; Dose 0.000005, Day 1",C (less than 50% necrosis)
same,Sum of % necrosis in barley,"[2]; Dose 0.000005, Day 3",C (less than 50% necrosis)
same,Sum of % necrosis in barley,"[2]; Dose 0.000005, Day 7",C (less than 50% necrosis)
same,Sum of % necrosis in barley,"[2]; Dose 0.000005, Day 10",C (less than 50% necrosis)
same,Sum of % necrosis in barley,"[2]; Dose 0.000005, Day 14",C (less than 50% necrosis)
same,Sum of % necrosis in barley,"[2]; Dose 0.00001, Day 0",C (less than 50% necrosis)
same,Sum of % necrosis in barley,"[2]; Dose 0.00001, Day 1",C (less than 50% necrosis)
same,Sum of % necrosis in barley,"[2]; Dose 0.00001, Day 3",C (less than 50% necrosis)
same,Sum of % necrosis in barley,"[2]; Dose 0.00001, Day 7",C (less than 50% necrosis)
same,Sum of % necrosis in barley,"[2]; Dose 0.00001, Day 10",C (less than 50% necrosis)
same,Sum of % necrosis in barley,"[2]; Dose 0.00001, Day 14",C (less than 50% necrosis)
same,Sum of % necrosis in barley,"[2]; Dose 0.00005, Day 0",C (less than 50% necrosis)
same,Sum of % necrosis in barley,"[2]; Dose 0.00005, Day 1",C (less than 50% necrosis)
same,Sum of % necrosis in barley,"[2]; Dose 0.00005, Day 3",C (less than 50% necrosis)
same,Sum of % necrosis in barley,"[2]; Dose 0.00005, Day 7",C (less than 50% necrosis)
same,Sum of % necrosis in barley,"[2]; Dose 0.00005, Day 10",C (less than 50% necrosis)
same,Sum of % necrosis in barley,"[2]; Dose 0.00005, Day 14",C (less than 50% necrosis)
same,Sum of % necrosis in barley,"[2]; Dose 0.0001, Day 0",C (less than 50% necrosis)
same,Sum of % necrosis in barley,"[2]; Dose 0.0001, Day 1",C (less than 50% necrosis)
same,Sum of % necrosis in barley,"[2]; Dose 0.0001, Day 3",C (less than 50% necrosis)
same,Sum of % necrosis in barley,"[2]; Dose 0.0001, Day 7",C (less than 50% necrosis)
same,Sum of % necrosis in barley,"[2]; Dose 0.0001, Day 10",C (less than 50% necrosis)
same,Sum of % necrosis in barley,"[2]; Dose 0.0001, Day 14",C (less than 50% necrosis)
same,Sum of % necrosis in barley,"[2]; Dose 0.0005, Day 0",C (less than 50% necrosis)
same,Sum of % necrosis in barley,"[2]; Dose 0.0005, Day 1",C (less than 50% necrosis)
same,Sum of % necrosis in barley,"[2]; Dose 0.0005, Day 3",C (less than 50% necrosis)
same,Sum of % necrosis in barley,"[2]; Dose 0.0005, Day 7",C (less than 50% necrosis)
same,Sum of % necrosis in barley,"[2]; Dose 0.0005, Day 10",C (less than 50% necrosis)
same,Sum of % necrosis in barley,"[2]; Dose 0.0005, Day 14",C (less than 50% necrosis)
